Source: the supplement of paper PMC10627819

Key:
Assay in all cases: Bliss interaction score (quartile over a dose matrix) (fitness difference); higher = more antagonism (negative = synergy)
S. aureus DSM 20231 = tested on: S. aureus DSM 20231
Procedure, shortened: (§1)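 The Bliss score is observed minus expected fitness under the product model, reported as quartiles over technical, biological and donor/recipient replicates. Fitness is the OD595 at entry into stationary phase divided by the plate's robust no-drug mean and capped at 1. Single-drug fitness was inferred from combination data.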

S. aureus Newman = tested on: S. aureus Newman
Procedure, shortened: as §1

B. subtilis 168 = tested on: B. subtilis 168
Procedure, shortened: as §1

S. pneumoniae D39V = tested on: S. pneumoniae D39V
Procedure, shortened: as §1
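Note: first quartile when negative (synergy) and third quartile when positive (antagonism).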

Row | SMILES | Bliss interaction score (S. aureus DSM 20231; main component drawn) | Bliss interaction score (S. aureus Newman; main component drawn) | Bliss interaction score (B. subtilis 168; main component drawn) | Bliss interaction score (S. pneumoniae D39V; main component drawn) | Bliss interaction score (S. aureus DSM 20231) | Bliss interaction score (S. aureus Newman) | Bliss interaction score (B. subtilis 168) | Bliss interaction score (S. pneumoniae D39V)
1 | CNC(C)C1CCC(N)C(OC2C(N)CC(N)C(OC3OCC(C)(O)C(NC)C3O)C2O)O1 (stereo unspecified) [Gentamicin] + CN[C@H](CC(C)C)C(=O)N[C@H]1C(=O)N[C@@H](CC(N)=O)C(=O)N[C@H]2C(=O)N[C@H]3C(=O)N[C@H](C(=O)N[C@H](C(=O)O)c4cc(O)cc(O)c4-c4cc3ccc4O)[C@H](O[C@H]3C[C@](C)(N)[C@@H](O)[C@H](C)O3)c3ccc(c(Cl)c3)Oc3cc2cc(c3O[C@@H]2O[C@H](CO)[C@@H](O)[C@H](O)[C@H]2O[C@H]2C[C@](C)(NCc3ccc(-c4ccc(Cl)cc4)cc3)[C@@H](O)[C@H](C)O2)Oc2ccc(cc2Cl)[C@H]1O [Oritavancin] | -0.0507 | 0.0919 | 0.048 | 0.0748 | – | – | – | –
2 | CNC(C)C1CCC(N)C(OC2C(N)CC(N)C(OC3OCC(C)(O)C(NC)C3O)C2O)O1 (stereo unspecified) [Gentamicin] + CO[C@@]12[C@H](COC(N)=O)C3=C(C(=O)C(C)=C(N)C3=O)N1C[C@@H]1N[C@@H]12 [MitomycinC] | -0.0573 | 0.0445 | -0.0792 | 0.0575 | – | – | – | –
3 | CNC(C)C1CCC(N)C(OC2C(N)CC(N)C(OC3OCC(C)(O)C(NC)C3O)C2O)O1 (stereo unspecified) [Gentamicin] + Oc1cc(Cl)ccc1Oc1ccc(Cl)cc1Cl [Triclosan] | -0.0821 | 0.0182 | -0.17 | 0.0731 | – | – | – | –
4 | Clc1ccc(COC(Cn2ccnc2)c2ccc(Cl)cc2Cl)c(Cl)c1 (stereo unspecified) [Miconazole] + CC1(C)S[C@@H]2[C@H](NC(=O)Cc3ccccc3)C(=O)N2[C@H]1C(=O)O [PenicillinG] | – | – | – | – | 0.0525 | -0.0331 | 0.0707 | 0.106
5 | Clc1ccc(COC(Cn2ccnc2)c2ccc(Cl)cc2Cl)c(Cl)c1 (stereo unspecified) [Miconazole] + CCCCCCCCCC(=O)N[C@@H]1[C@H]([C@@H]([C@H](O[C@H]1OC2=C3C=C4C=C2OC5=C(C=C(C=C5)[C@H]([C@H]6C(=O)N[C@@H](C7=C(C(=CC(=C7)O)OC8[C@H]([C@H]([C@@H]([C@H](O8)CO)O)O)O)C9=C(C=CC(=C9)[C@H](C(=O)N6)NC(=O)[C@@H]4NC(=O)[C@@H]1C2=CC(=CC(=C2)OC2=C(C=CC(=C2)[C@H](C(=O)N[C@H](CC2=CC(=C(O3)C=C2)Cl)C(=O)N1)N)O)O)O)C(=O)O)O[C@H]1[C@@H]([C@H]([C@@H]([C@H](O1)CO)O)O)NC(=O)C)Cl)CO)O)O [Teicoplanin] | -0.0409 | -0.0558 | 0.117 | 0.115 | – | – | – | –
6 | Clc1ccc(COC(Cn2ccnc2)c2ccc(Cl)cc2Cl)c(Cl)c1 (stereo unspecified) [Miconazole] + CC[C@H]1OC(=O)[C@H](C)C(=O)[C@H](C)[C@@H](O[C@@H]2O[C@H](C)C[C@H](N(C)C)[C@H]2O)[C@](C)(OC)C[C@@H](C)C(=O)[C@H](C)[C@H]2N(CCCCn3cnc(-c4cccnc4)c3)C(=O)O[C@]12C [Telithromycin] | – | – | – | – | 0.04 | 0.0508 | 0.0586 | 0.104
7 | Clc1ccc(COC(Cn2ccnc2)c2ccc(Cl)cc2Cl)c(Cl)c1 (stereo unspecified) [Miconazole] + CN[C@H](CC(C)C)C(=O)N[C@H]1C(=O)N[C@@H](CC(N)=O)C(=O)N[C@H]2C(=O)N[C@H]3C(=O)N[C@H](C(=O)N[C@H](C(=O)O)c4cc(O)cc(O)c4-c4cc3ccc4O)[C@H](O[C@H]3C[C@](C)(N)[C@@H](O)[C@H](C)O3)c3ccc(c(Cl)c3)Oc3cc2cc(c3O[C@@H]2O[C@H](CO)[C@@H](O)[C@H](O)[C@H]2O[C@H]2C[C@](C)(NCc3ccc(-c4ccc(Cl)cc4)cc3)[C@@H](O)[C@H](C)O2)Oc2ccc(cc2Cl)[C@H]1O [Oritavancin] | – | – | – | – | -0.0286 | -0.0754 | -0.0225 | -0.0639
8 | Clc1ccc(COC(Cn2ccnc2)c2ccc(Cl)cc2Cl)c(Cl)c1 (stereo unspecified) [Miconazole] + CO[C@@H]1[C@@H](OC(N)=O)[C@@H](O)[C@H](Oc2ccc3c(O)c(NC(=O)c4ccc(O)c(CC=C(C)C)c4)c(=O)oc3c2C)OC1(C)C [Novobiocin] | – | – | – | – | 0.0483 | 0.0415 | 0.0735 | 0.121
9 | Clc1ccc(COC(Cn2ccnc2)c2ccc(Cl)cc2Cl)c(Cl)c1 (stereo unspecified) [Miconazole] + CO[C@@]12[C@H](COC(N)=O)C3=C(C(=O)C(C)=C(N)C3=O)N1C[C@@H]1N[C@@H]12 [MitomycinC] | – | – | – | – | 0.0383 | -0.188 | -0.066 | 0.0662
10 | Clc1ccc(COC(Cn2ccnc2)c2ccc(Cl)cc2Cl)c(Cl)c1 (stereo unspecified) [Miconazole] + COc1cc(Cc2cnc(N)nc2N)cc(OC)c1OC [Trimethoprim] | – | – | – | – | 0.0514 | 0.0486 | 0.0906 | -0.117
11 | Clc1ccc(COC(Cn2ccnc2)c2ccc(Cl)cc2Cl)c(Cl)c1 (stereo unspecified) [Miconazole] + Oc1cc(Cl)ccc1Oc1ccc(Cl)cc1Cl [Triclosan] | – | – | – | – | 0.0712 | 0.0222 | 0.0625 | 0.0535
12 | Cc1onc(-c2ccccc2)c1C(=O)N[C@@H]1C(=O)N2[C@@H]1SC(C)(C)[C@@H]2C(=O)O [Oxacillin] + C/C(=C\C(=O)OCCCCCCCCC(=O)O)C[C@@H]1OC[C@H](C[C@@H]2O[C@H]2[C@@H](C)[C@H](C)O)[C@@H](O)[C@H]1O [Pseudomonic acid] | – | – | – | – | 0.0247 | 0.0232 | 0.0424 | 0.158
13 | Cc1onc(-c2ccccc2)c1C(=O)N[C@@H]1C(=O)N2[C@@H]1SC(C)(C)[C@@H]2C(=O)O [Oxacillin] + CC1(C)S[C@@H]2[C@H](NC(=O)Cc3ccccc3)C(=O)N2[C@H]1C(=O)O [PenicillinG] | – | – | – | – | 0.0796 | -0.0558 | -0.0214 | -0.235
14 | Cc1onc(-c2ccccc2)c1C(=O)N[C@@H]1C(=O)N2[C@@H]1SC(C)(C)[C@@H]2C(=O)O [Oxacillin] + CC[C@H]1OC(=O)[C@H](C)C(=O)[C@H](C)[C@@H](O[C@@H]2O[C@H](C)C[C@H](N(C)C)[C@H]2O)[C@](C)(OC)C[C@@H](C)C(=O)[C@H](C)[C@H]2N(CCCCn3cnc(-c4cccnc4)c3)C(=O)O[C@]12C [Telithromycin] | – | – | – | – | 0.0397 | 0.0304 | -0.0301 | 0.112
15 | Cc1onc(-c2ccccc2)c1C(=O)N[C@@H]1C(=O)N2[C@@H]1SC(C)(C)[C@@H]2C(=O)O [Oxacillin] + Oc1cc(Cl)ccc1Oc1ccc(Cl)cc1Cl [Triclosan] | – | – | – | – | 0.0454 | 0.0273 | 0.025 | 0.0852
16 | C[n+]1ccc(-c2cc[n+](C)cc2)cc1 [Paraquat] + C/C(=C\C(=O)OCCCCCCCCC(=O)O)C[C@@H]1OC[C@H](C[C@@H]2O[C@H]2[C@@H](C)[C@H](C)O)[C@@H](O)[C@H]1O [Pseudomonic acid] | – | – | – | – | 0.0093 | 0.0152 | 0.0715 | -0.0863
17 | C[n+]1ccc(-c2cc[n+](C)cc2)cc1 [Paraquat] + CC1(C)S[C@@H]2[C@H](NC(=O)Cc3ccccc3)C(=O)N2[C@H]1C(=O)O [PenicillinG] | – | – | – | – | -0.0239 | 0.0437 | -0.0267 | -0.0591
18 | C[n+]1ccc(-c2cc[n+](C)cc2)cc1 [Paraquat] + CC[C@H]1OC(=O)[C@H](C)C(=O)[C@H](C)[C@@H](O[C@@H]2O[C@H](C)C[C@H](N(C)C)[C@H]2O)[C@](C)(OC)C[C@@H](C)C(=O)[C@H](C)[C@H]2N(CCCCn3cnc(-c4cccnc4)c3)C(=O)O[C@]12C [Telithromycin] | – | – | – | – | 0.0414 | -0.0252 | -0.0235 | 0.0949
19 | C[n+]1ccc(-c2cc[n+](C)cc2)cc1 [Paraquat] + Oc1cc(Cl)ccc1Oc1ccc(Cl)cc1Cl [Triclosan] | – | – | – | – | 0.0434 | -0.0576 | -0.188 | 0.058
20 | Cn1c2cccc(=O)c-2nc2ccccc21 [Pyocyanin] + CC[C@H]1OC(=O)[C@H](C)C(=O)[C@H](C)[C@@H](O[C@@H]2O[C@H](C)C[C@H](N(C)C)[C@H]2O)[C@](C)(OC)C[C@@H](C)C(=O)[C@H](C)[C@H]2N(CCCCn3cnc(-c4cccnc4)c3)C(=O)O[C@]12C [Telithromycin] | – | – | – | – | 0.0313 | -0.0591 | -0.0145 | -0.0564
21 | Cn1c2cccc(=O)c-2nc2ccccc21 [Pyocyanin] + Oc1cc(Cl)ccc1Oc1ccc(Cl)cc1Cl [Triclosan] | – | – | – | – | 0.037 | 0.0494 | -0.0279 | -0.0544
22 | CN(N=O)C(=O)N[C@@H](C=O)[C@@H](O)[C@H](O)[C@H](O)CO [Streptozotocin] + CC[C@H]1OC(=O)[C@H](C)C(=O)[C@H](C)[C@@H](O[C@@H]2O[C@H](C)C[C@H](N(C)C)[C@H]2O)[C@](C)(OC)C[C@@H](C)C(=O)[C@H](C)[C@H]2N(CCCCn3cnc(-c4cccnc4)c3)C(=O)O[C@]12C [Telithromycin] | – | – | – | – | 0.0346 | -0.0223 | 0.0498 | 0.0699
23 | CN(N=O)C(=O)N[C@@H](C=O)[C@@H](O)[C@H](O)[C@H](O)CO [Streptozotocin] + Cc1cc(NS(=O)(=O)c2ccc(N)cc2)no1 [Sulfamethoxazol] | – | – | – | – | -0.0487 | 0.0639 | -0.0496 | -0.0217
24 | CN(N=O)C(=O)N[C@@H](C=O)[C@@H](O)[C@H](O)[C@H](O)CO [Streptozotocin] + Oc1cc(Cl)ccc1Oc1ccc(Cl)cc1Cl [Triclosan] | – | – | – | – | 0.0542 | -0.0226 | 0.095 | -0.0506
